Assay results: patent US11161876B2, “Anti-inflammatory nanofibers” (Northwestern University, priority 2015, dated 2021)
* marks the point of attachment. C16 alkyl = CCCCCCCCCCCCCCCC*

How the values were obtained:
[1] = test system: Rat Bladder Augmentation Model; assay: Bladder stone formation in regenerating bladders; assay type: in vivo; details: for Bladder Stone Formation (shown as percentage of animals forming stones): 5 weeks post-augmentation; for size of bladder stones formed, in words: rat, in vivo
Text: Bladder stone formation can be caused by a myriad of factors including those based upon diet as well as genetic makeup and underlying bladder conditions (refs. 57,58; herein incorporated by reference in its entirety).
(§1) Athymic female rats (weighing ˜200 g and 8-10 weeks old; National Cancer Institute Animal Production Program) underwent bladder augmentation (ref. 15; herein incorporated by reference in its entirety). Athymic rats were chosen for this study to solely examine the innate immune response to inflammation without influence of the adaptive immune response. In order to induce anesthesia, animals were given intraperitoneal injections of 60 mg/kg ketamine and 5 mg/kg xylazine. A second injection consisting of Buprenex (1 mg/kg) was administered subcutaneously to alleviate any pain/discomfort during and following surgical procedures. An approximate 1.5 cm midline vertical skin incision was created to expose the abdominal fascia and muscles. This was immediately followed by the separation of the wall leading to the identification of the bladder. An approximate 70% supratrigonal cystectomy was performed from anterior to posterior creating a clamshell. Immediately prior to bladder augmentation procedures, samples of the pro-inflammatory biological scaffold, small intestinal submucosa (SIS (0.5×0.5 cm); Cook Biotech.) (refs. 12,13,16; herein incorporated by reference in their entireties) were thoroughly dip-coated separately in one of the previously described AIF-PAs following gelation procedures. The sections of SIS were dip-coated for approximately 20 seconds and allowed to adhere to the SIS for an additional 30 seconds. Dip-coating procedures were performed at room temperature in air. The cystectomized bladder defect was then augmented with: 1) SIS (non-AIF-PA coated SIS; n=8 animals over both time-points); 2) AIF-PA1 coated SIS (denoted as SIS/AIF-PA1; n=11 animals over both time-points); 3) AIF-PA2 coated SIS (denoted as SIS/AIF-PA2; n=8 animals over both time-points); 4) AIF-PA3 coated SIS (denoted as SIS/AIF-PA3; n=3); 5) AIF-PA4 coated SIS (denoted as SIS/AIF-PA4; n=3 animals); 6) AIF-PA5 coated SIS (denoted as SIS/AIF-PA5; n=3 animals); and 7) AIFC-PA6 coated SIS (denoted as SIS/AIFC-PA6; n=9 animals over both time-points). The bladder was finally covered with omentum after being closed in a watertight manner utilizing 7-0 polyglactin suture. The abdominal wall was then closed in a single layer with 5-0 ethibond running suture and the skin re-approximated with 9 mm autoclips. Each group was sacrificed at 10 day and 5 week time-points.

IL-13 = IL-13 expression in regenerated bladder tissue (immunofluorescence); assay type: in vivo, rat; details: for Cytokine expression (shown as percentage of cells staining positive) Anti-inflammatory IL-13: 5 weeks post-augmentation, means ± SE; for percentage of cells staining positive for IL-13: 10 days post-augmentation
Method: as §1
(§2) Tissue sections comprised of SIS alone, SIS/AIF-PA1, SIS/AIF-PA2, and SIS/AIF-PA6 augmentations were subjected to immunofluorescence staining by initially undergoing antigen retrieval which consisted of 15 min of boiling in citrate buffer (0.01M citrate solution, pH 6.0 with 0.05% Tween-20) followed by cooling at room temperature for approximately 20 minutes. The antibody staining process consisted of a blocking step for 15 min in bovine serum albumin (BSA, 5 mg/ml) followed by a 40 minutes incubation at room temperature with the primary antibody. After washing with DPBS, slides were incubated for 30 min with a secondary antibody and eventually rinsed with DPBS and air dried. Slides were mounted with Vectashield (Vector Laboratories). Primary antibodies were directed against epitopes for the inflammatory markers CD68 (macrophage) (refs. 18,19; herein incorporated by reference in their entireties) MPO (neutrophil) (ref. 20; herein incorporated by reference in its entirety) or the inflammation-related proteins IL1β, TNFα, IL-10, IL-13, CD206 (M2 macrophage) (refs. 21-25; herein incorporated by reference in their entireties) and CD86 (M1 macrophage) (ref. 26; herein incorporated by reference in its entirety). Antibodies directed against the ECM in regenerating bladder tissue (including COL4A3 and fibronectin) were also utilized. Alexa Red 555 or FITC conjugated secondary antibodies (Molecular Probes) were utilized for visualization (ref. 15; herein incorporated by reference in its entirety). […]

IL-10 = IL-10 expression in regenerated bladder tissue (immunofluorescence); assay type: in vivo, rat; details: for Cytokine expression (shown as percentage of cells staining positive) Anti-inflammatory IL-10: 5 weeks post-augmentation, means ± SE; for percentage of cells staining positive for IL-10: 10 days post-augmentation
Method: as §1, §2

[2] = test system: Rat Bladder Augmentation Model; assay: Blood vessel quantification in areas of bladder tissue regeneration; assay type: in vivo; details: means±SE
Method: as §1
Trichrome sample images were opened with Adobe Photoshop CS3 and were initially characterized utilizing a Nikon Eclipse 50i Microscope in addition to Spot Advanced Imaging Software. Vessel numbers were quantified utilizing the pen tool based upon n=10 images per graft in regenerated areas. Individual vessels were selected manually and subsequently quantified using the image histogram tool to acquire pixel density for each vessel. Data is represented as mean number of vessels/mm^2 (means±SE).

CD206+ M2 macrophages = assay: M2 macrophage subtype (CD206) distribution in regenerating bladder tissue; assay type: in vivo, rat; details: for M2 macrophage levels, in words: 10 days to 5 weeks
Method: as §1, §2

TNFα = TNFα expression in regenerated bladder tissue (immunofluorescence); assay type: in vivo, rat; details: for Cytokine expression (shown as percentage of cells staining positive) Pro-inflammatory TNFα: 5 weeks post-augmentation, means ± SE; for percentage of cells staining positive for TNFα: 10 days post-augmentation
Method: as §1, §2

[3] = test system: Rat Bladder Augmentation Model; assay: Bladder tissue collagen quantification (Masson's Trichrome); assay type: in vivo; details: for mean level of collagen in regenerated bladder tissue: means±SE; for collagen levels, in words: 10 days post-augmentation, compared between groups
Method: as §1
Explanted bladder specimens encompassing the entire thickness of the bladder were isolated immediately following euthanasia and processed (ref. 15; herein incorporated by reference in its entirety). Specimens were fixed in a 10% buffered formalin phosphate (Fisher Scientific, Inc.) solution followed by a series of graded ethanol exchanges then embedded in paraffin (Fisher Scientific). Embedded tissues were sectioned onto glass slides at a thickness of 10 μm using a RM2125 RT Microtome (Leica) onto glass slides and subjected to staining with Masson's Trichrome (Sigma-Aldrich Corp.) reagent. The paraffin was removed from tissue containing slides using a hot plate at 62° C. for 6 minutes and was followed by treatment with xylenes, graded ethanol washes and DI water. Slides were placed in Bouin's solution (Sigma-Aldrich Corp.) for approximately 15 min then rinsed under running tap water. The samples were then stained 5 minutes with Hematoxylin and rinsed with running water and subsequently stained with Scarlet-Acid Fuchsin (Sigma-Aldrich Corp.). Slides were rinsed again with DI water and placed into a mixture of PTA/PMA, followed by Aniline Blue solution and a 1% acetic acid wash. Finally, slides were placed in 95-100% ethanol and rinsed in xylene. Following air drying, a coverslip was placed over the specimen sample and secured with Permaslip (Alban Scientific Inc).
Bladder tissue specimens were evaluated for collagen content (refs. 13,15,17; herein incorporated by reference in their entireties). […]

Substance | Bladder Stone Formation (shown as percentage of animals forming stones) [1] | size of bladder stones formed, in words [1] | Cytokine expression (shown as percentage of cells staining positive) Anti-inflammatory IL-13 (IL-13) | percentage of cells staining positive for IL-13 (IL-13) | Cytokine expression (shown as percentage of cells staining positive) Anti-inflammatory IL-10 (IL-10) | percentage of cells staining positive for IL-10 (IL-10) | number of vessels in regenerated tissue ([2]; 5W post-augmentation) | number of vessels in regenerated tissue ([2]; 10D post-augmentation) | number of M2 macrophages (CD206+ M2 macrophages; 5W post-augmentation) | M2 macrophage levels, in words (CD206+ M2 macrophages) | Cytokine expression (shown as percentage of cells staining positive) Pro-inflammatory TNFα (TNFα) | percentage of cells staining positive for TNFα (TNFα) | mean level of collagen in regenerated bladder tissue ([3]; 5W post-augmentation) | mean level of collagen in regenerated bladder tissue ([3]; 10D post-augmentation) | collagen levels, in words [3] | number of M2 macrophages (CD206+ M2 macrophages; 10D post-augmentation)
C16-VVVAAAEEEHDMNKVLDL (SEQ ID NO:2) ({C16 alkyl}-VVVAAAEEEHDMNKVLDL-NH2) [SIS/AIF-PA2, anti-inflammatory peptide amphiphile, tested dip-coated on small intestinal submucosa (SIS) scaffold] | 16.7 percentage | a fraction of the size found in control animals | 32.0 ± 1.8 percentage | 41.2±2.2% | 33.2 ± 2.3 percentage | 56.2±3.4% | 96.7±4.4 vessels/mm^2 | 71.5±6.7 vessels/mm^2 | 224.7±39.0 cells/mm^2 | Comparatively low numbers | 14.6 ± 1.7 percentage | 26.3±2.5% | 58.0±0.6% | 58.6±0.4% | lesser degrees of collagen | 
C16-VVVAAAEEEMQMKKVLDS (SEQ ID NO:1) ({C16 alkyl}-VVVAAAEEEMQMKKVLDS-NH2) [SIS/AIF-PA1, anti-inflammatory peptide amphiphile, tested dip-coated on small intestinal submucosa (SIS) scaffold] | 25.0 percentage | a fraction of the size found in control animals | 26.1 ± 2.7 percentage | 48.2±2.8% | 30.0 ± 1.6 percentage | 52.0±3.1% | 90.7±4.5 vessels/mm^2 | 71.0±1.5 vessels/mm^2 | 301.7±23.0 cells/mm^2 | further decreased by 5 weeks | 17.4 ± 2.9 percentage | 32.8±2.5% | 55.0±1.2% | 59.1±1.1% | lesser degrees of collagen | 
C16-VVVAAAEEEKLMSQKMVD (SEQ ID NO:6) ({C16 alkyl}-VVVAAAEEEKLMSQKMVD-NH2) [SIS/AIFC-PA6, reference compound] | 42.9 percentage | quite large in size | 20.4 ± 2.6 percentage | 28.6±3.0% | 21.1 ± 2.1 percentage | 27.8±3.0% | 53.3±4.4 vessels/mm^2 | 37.0±2.3 vessels/mm^2 | 539.3±46.7 cells/mm^2 |  | 42.8 ± 2.2 percentage | 65.1±5.1% | 68.8±2.7% | 71.5±1.4% |  | 842.5±18.9 cells/mm^2
